{"source": "patent US8323704B2", "about": "“Process for preparation of extract of Decalepis hamiltonii having antioxidant activity” (Council of Scientific and Industrial Research, priority 2003, dated 2012)", "key": {"[1]": {"test": "Antioxidant assay using β-Carotene Linoleate model System (β CLAMS)", "format": "biochemical", "details": "bleaching of β carotene, 180 min, 50° C.", "description": "Antioxidant assay using β-Carotene Linoleate model System (β CLAMS) (Hidalgo et al., 1994)\nThis is one of the rapid methods to screen antioxidants, which is mainly based on principle that Linoleic acid which is an unsaturated fatty acid gets oxidized by “Reactive Oxgen Species” (ROS) produced by oxygenated water. The products formed will initiate the β-Carotene oxidation, which leads to discoloration.\nDue to insolubility of β-Carotene in water, it is first made into emulsion. β-Carotene is dissolved in chloroform and using Tween-40 (Polyoxyethylene sorbotan manonitrate) as surfactant, it was mixed with Linoleic acid to form emulsion. The resulting mixture is diluted with triple distilled water (1 part) and mixed well. This emulsion is further made up with oxygenated water (4 parts) which initiates the process of oxidation immediately. It is transferred to tubes containing samples. Initial (zero min) reading is read, followed by recording the absorbance at 15 min intervals at 470 nm. All tubes were placed in water bath at 50° C. throughout the experiment.\nβ Carotene linoleic acid emulsion mixture—100 ml (Jayaprakash et al., 2000) […]\n[…] Absorbance of all samples were taken at 470 nm at Zero time and tubes were placed at 50° C. in water bath., Measurement of Absorbance was continued at an interval of 15 minutes, till the colour of β carotene disappeared in the control reaction (t=180 min). […] Dose response of antioxidant activity for various extracts was determined at different concentrations.\nThe antioxidant activity (% AA) of extracts was evaluated in terms of bleaching of β Carotene using the following formula (Hidalgo et al, 1994).\nEach experiment was carried out in triplicate and the deviation of absorbance value was less than 10%. % AA=100[1-(A^0-A^t)/A^00-A^0t)] […]\nA^0=Zero time absorbance of sample\nA^t=Absorbance of sample after incubation for 180 min\nA^00=Zero time absorbance of control\nA^t0=Absorbance of control after incubation for 180 min.\nAnd results were expressed as % Antioxidant activity."}, "[2]": {"test": "Free radical scavenging activity using D.P.P.H as stable free radical", "format": "biochemical", "details": "20 minutes, 517 nm", "protocol": "Schematic representation of chemically stable radical scavenging activity using D.P.P.H as stable free radical: (Blios, 1958)\nFree radical scavenging potentials of the extracts were tested against a methanolic solution of α,α-diphenyl-β-picryl hydrazyl (D.P.P.H). Antioxidants reacts with D.P.P.H. and convert it to α,α-diphenyl-β-picryl hydrazine. The degree of discoloration indicates the scavenging potentials of the antioxidant extract. The change in the absorbance produced at 517 nm has been used as a measure of antioxidant activity.\n• Methanolic solution of D.P.P.H (100 μM): 39.4 mg of D.P.P.H was dissolved in one liter of analytical grade methanol. • Preparation of the extract solutions: 55 mg of the extract was dissolved in 10 ml of methanol and filtered; the filtrate was used for the experiments. Method:\nAliquots of 0.025, 0.05, 0.1 ml of extracts and standard were taken in different test tubes. To this 5 ml of methanolic solution of D.P.P.H was added, shaken well and the mixture was allowed to stand at room temperature for 20 minutes. The blank was prepared as above without extract. […] The absorbance of blank was first noted at 517 nm. The change of absorbance of the samples was measured.\nScavenging activity was expressed as the inhibition percentage calculated using the following formula, […]"}}, "data": [{"compound": "COc1ccc(O)c(C(C)(C)C)c1", "note": "[Standard BHA, butylated hydroxy anisole]", "values": [{"measurement": "% Activity ± S.D (antioxidant activity, % AA)", "setting": "[1]; 100 ppm", "result": 84.3, "unit": "%"}, {"measurement": "% Activity ± S.D (antioxidant activity, % AA)", "setting": "[1]; 500 ppm", "result": 88.6, "unit": "%"}, {"measurement": "% Activity ± S.D (antioxidant activity, % AA)", "setting": "[1]; 1000 ppm", "result": 90.1, "unit": "%"}]}, {"compound": "α,α-diphenyl-β-picryl hydrazyl [Standard D.P.P.H]", "values": [{"measurement": "% Activity ± S.D (anti-radical activity, inhibition percentage)", "setting": "[2]; 100 ppm", "result": 88.3, "unit": "%"}, {"measurement": "% Activity ± S.D (anti-radical activity, inhibition percentage)", "setting": "[2]; 500 ppm", "result": 92.6, "unit": "%"}, {"measurement": "% Activity ± S.D (anti-radical activity, inhibition percentage)", "setting": "[2]; 1000 ppm", "result": 94.3, "unit": "%"}]}]}
